A word on the GI50: it is the concentration giving 50% growth inhibition. A lower GI50 goes with greater sensitivity of the cells.

What all share (format): functional
In experiment [1] the test system is Tumor Cell line. The experiment in a line: In vitro cytotoxic potency against 60 human tumor cell lines at 10e-7 M concentration.
A further experiment has as its system P388. The experiment in a line: Effective dose against P388 cell line […]. Particulars: Mus musculus, read-out: ED50 (the source's name).
Experiment [2] has as its system Tumor Cell line. The experiment can be described thus: In vitro cytotoxic potency against 60 human tumor cell lines at 10e-8 M concentration.

SMILES strings stand for the structures.

`C[C@@H]1[C@]2(O[C@H]3C=C4[C@@H]5CC[C@H]6Cc7nc8c(nc7C[C@]6(C)[C@H]5C[C@@H](O)[C@]4(C)[C@]31O)C[C@@H]1CC[C@H]3C4=CC[C@@H]5[C@H](C)[C@@]6(OC[C@]45C(=O)C[C@@H]3[C@@]1(C)C8)OC(C)(C)C[C@H]6O)O[C@](C)(CO)C[C@H]2O` [CEPHALOSTATIN 1] displayed a GI50 with Tumor Cell line [1] of roughly 1 nM.

On to `C[C@@H]1[C@H]2CC=C3[C@@H]4CC[C@H]5Cc6nc7c(nc6C[C@]5(C)[C@@]4(O)CC(=O)[C@@]32CO[C@]12OC(C)(C)C[C@H]2O)C[C@@H]1CC[C@H]2C3=C[C@@H]4O[C@@]5(CC[C@](C)(O)CO5)[C@@H](C)[C@]4(O)[C@@]3(C)[C@H](O)C[C@@H]2[C@@]1(C)C7` [CEPHALOSTATIN 16], for which, in the experiment on P388, the EC50 is less than 1 ng/mL. In addition, the GI50 in the experiment on Tumor Cell line [2] is roughly 1 nM.

Source of the values: ChEMBL document CHEMBL1128811, “Isolation and structure of the exceptional Pterobranchia human cancer inhibitors cephalostatins 16 and 171” (1995).
